Laboratory results as given in US6767890B1, “Peptides having anti-cancer and anti-inflammatory activity” (priority 1998, dated 2004).
Values joined by “and” are separate entries in the source; they are usually repeats but may differ in a detail not shown here. Equal values may be shown once.

Key:
[1] = test system: Adjuvant Induced Arthritis; experiment: Adjuvant Induced Arthritis Model; type: in vivo; conditions: rat, 20 mg per KG body weight orally once per day for 14 days, Day 14
Procedure: Adjuvant Induced Arthritis Model: Male Sprague-Dawley rats (160-180 g) were sensitized by injecting Fruend's Complete Adjuvant (0.5% suspension of killed mycobacterium tuberculosis (H37RA, Difco in mineral oil)). 0.05 ml was administered intradermally at a plantar site on the right hind leg of each rat. The test materials were given orally (by gavage) in 0.5% methylcelluose, at a dose level of 20 milligrams per kilo body weight, and given once per day for 14 days. The administration was started the day after sensitization. The left hind paw was measured just before sensitization and on Day 14, and the plantar edema inhibitory rate and the body weight gain rate were determined in comparison with the nonsensitized rat groups. The paw weights for each group in each test run were averaged. Activity was calculated as follows: [formula]
The Anti-inflammatory response is the difference in the mean foot volume. […] FIG. 4.

[2] = target: T1, histamine H3 receptor (Cavia porcellus, UniProt Q9JI35); experiment: Histamine H3 Agonism/Antagonism, guinea pig ileum; type: cell-based; conditions: Peptide 30 μM, Thioperamide 0.3 μM
T1 construct: ileum obtained from Duncan Hartley derived male or female guinea pigs; from tissue; host or cells: guinea pig ileum segment, field-stimulated
Procedure: A segment of ileum obtained from Duncan Hartley derived male or female guinea pigs weighing 325±25 gms and sacrificed by CO2 overexposure were used. The tissue was placed under 0.5 g tension in a 10 ml bath containing Kreb's solution pH 7.4 and pyrilamine (0.3 μM) at 32° C. and subjected to field stimulation (70% of maximum voltage, 0.1 Hz, 0.5 millisecond). Test substance (30 μM)-induced reduction of isometrically recorded contractions 50 percent or more (≧50%) within 5 minutes, relative to control 0.3 μM R-α-methylhistamine response, indicated possible histamine H3 receptor agonist activity. At a test substance concentration where no significant agonist activity was seen, ability to inhibit R-α-methylhistamine-induced response by 50 percent or more (≧50%) indicated histamine H3 receptor antagonist activity. Each concentration was tested on two separate preparations.

[3] = test system: T2, Ca++/Calmodulin Dep. PK II; experiment: Ca++/Calmodulin Dep. PK II enzyme assay; type: biochemical, rat; conditions: 100.0 μM; average of duplicate; negative = stimulation
T2 construct: other: 100.0 μM; average of duplicate; negative = stimulation
Procedure: (§1) The peptide was further screened in vitro in a variety of enzyme and biochemical assays. Methods employed were adapted from the scientific literature to maximize reliability and reproducibility. The primary literature reference for each assay is listed in Table 11 opposite the results for each assay.
(§2) Results presented in Table 10, “Results,” are the average of duplicate determinations, unless otherwise noted.
(§3) Reference compounds were tested concurrently at 5 concentrations as an integral part of each assay to ensure the validity of the results obtained.
(§4) Enzyme assays were performed under conditions described in Table 8, “Experimental Conditions.”. The commercial suppliers and catalog numbers of substrates employed in this study are given in Table 7, “Material Sources.” The name, commercial source, and catalog numbers of concurrent reference compounds (controls) employed in this study are given in Table 9, “Reference Compound Data.” The reaction catalyzed by each enzyme is listed in Table 8, “Experimental Conditions.”
(§5) Biochemical assay results are presented in Table 10, as the percent inhibition of specific binding or activity, and unless noted are the average of duplicate tubes tested at each concentration.

[4] = target: Ca++ Ch.-L, Dihydropyridine (Rattus norvegicus, UniProt P22002); experiment: Ca++ Ch.-L, Dihydropyridine radioligand binding; conditions: 10.0 μM; specific binding of [3H]Nitrendipine; negative = stimulation
Procedure: (§6) The peptide was further screened in vitro in a variety of enzyme and biochemical assays. Methods employed were adapted from the scientific literature to maximize reliability and reproducibility.
as §2
Radioligand binding assays were performed under conditions described in Table 8, “Experimental Conditions.” Radioligands employed in this study are given in Table 8, and commercial sources and catalog numbers of the radioligands are provided in Table 7, “Material Sources.” Unlabeled, blocking ligands employed this study are listed in Table 8, “Experimenal Conditions,” along with the commercial sources and catalog number of the unlabeled ligand. The concurrent reference compound (control) employed in each assay is listed in Table 9, “Reference Compound Data,” along with the commercial supplier and catalog number of the compound. Where receptors have been obtained through recombinant expression techniques, the species from which the cDNA was obtained, and the type of expression system employed (mammalian, insect, bacterial) is also given Table 7.
Maximum total binding and nonspecific binding were determined each time each assay was run. Nonspecific binding was defined as the proportion of total binding not displaced by unlabeled ligand specific for the receptor. […]

[5] = test system: Sarcoma 180 tumor; experiment: Anti-Cancer Activity Against Mouse Tumor Sarcoma 180; type: in vivo; conditions: 10 mg/kg, listed as natural peptide
Procedure: This model has been used extensively as indicative of neovascularization in mammals inasmuch as the tumor so implanted is quickly vascularizing.
Experimental Design: All mice were weighed at test initiation and test termination. The animals were divided into three groups. The Sarcoma 180 tumor was made up from a passage mouse to furnish […] per 0.1 mL inoculum. The cells were injected into the left leg hamstring muscle mass. The was delivered to the mice by I.P. injections, or gavage on days 1-5.
At the termination of the experiments, the mice were weighed and the left rear leg was amputated at the thigh. The skin was removed from the leg to expose the site at which the tumor was located. […].

[6] = test system: Protein Kinase C, Non-Select.; experiment: Protein Kinase C, Non-Select. enzyme assay; type: biochemical, rat; conditions: 300.0 μM; average of duplicate; negative = stimulation
Procedure: as §1, §2, §3, §4, §5

[7] = target: T3, Histamine H3 (Rattus norvegicus, UniProt Q9QYN8); experiment: Histamine H3 radioligand binding; conditions: 10.0 μM; specific binding of [3H]NAMH; negative = stimulation
T3 construct: rat brain; from tissue; host or cells: rat brain
Procedure: as §1, §2, §3
Radioligand binding assays were performed under conditions described in Table 8, “Experimental Conditions.” Radioligands employed in this study are given in Table 8, and commercial sources and catalog numbers of the radioligands are provided in Table 7, “Material Sources.” Unlabeled, blocking ligands employed this study are listed in Table 8, “Experimenal Conditions,” along with the commercial sources and catalog number of the unlabeled ligand. The concurrent reference compound (control) employed in each assay is listed in Table 9, “Reference Compound Data,” along with the commercial supplier and catalog number of the compound. […]
Maximum total binding and nonspecific binding were determined each time each assay was run. […]
Where inhibition constants (Ki) are presented, the Ki values were calculated using the equation of Cheng and Prusoff (Cheng, Y., Prusoff, W. H., Biochem. Pharmacol. […], 1973) using the observed IC50 of the tested compound, the concentration of radioligand employed in the assay, and the historical values for the Kd of the ligand (obtained experimentally). Where presented, the Hill Coefficient (nH), defining the scope of the competitive binding curve, was calculated using GraphPad Prism. […] Where IC50, Ki, and/or Hill Slope data is presented without Standard Error of the Mean (SEM), data are insufficient to be quantitative, and the values presented (Ki, IC50, nH) should be interpreted with caution. […]

[8] = target: T4, Cyclooxygenase-1 (Ovis aries, UniProt P05979); experiment: Cyclooxygenase-1 enzyme assay; type: biochemical, ram; conditions: 300.0 μM; average of duplicate; negative = stimulation
T4 construct: ram seminal; from tissue; host or cells: ram seminal vesicle
Procedure: as §6
Unless otherwise indicated, the peptide was tested in duplicate at the concentrations indicated for each assay. Results presented in Table 10, “Results,” are the average of duplicate determinations, unless otherwise noted.
as §4, §5

T1 sequence (Q9JI35 whole entry): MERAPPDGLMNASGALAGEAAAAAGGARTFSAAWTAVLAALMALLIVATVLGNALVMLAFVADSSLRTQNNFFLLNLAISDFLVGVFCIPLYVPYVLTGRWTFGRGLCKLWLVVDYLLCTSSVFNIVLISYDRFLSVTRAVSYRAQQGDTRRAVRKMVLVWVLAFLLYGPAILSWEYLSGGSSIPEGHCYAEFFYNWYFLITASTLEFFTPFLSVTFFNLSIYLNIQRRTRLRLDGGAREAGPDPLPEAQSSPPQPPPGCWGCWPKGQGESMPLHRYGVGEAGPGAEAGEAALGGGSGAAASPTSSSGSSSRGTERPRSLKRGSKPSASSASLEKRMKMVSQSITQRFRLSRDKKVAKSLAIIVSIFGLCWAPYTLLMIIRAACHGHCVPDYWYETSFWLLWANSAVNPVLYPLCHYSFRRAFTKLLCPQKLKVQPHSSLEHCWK
T4 sequence (P05979 25-600): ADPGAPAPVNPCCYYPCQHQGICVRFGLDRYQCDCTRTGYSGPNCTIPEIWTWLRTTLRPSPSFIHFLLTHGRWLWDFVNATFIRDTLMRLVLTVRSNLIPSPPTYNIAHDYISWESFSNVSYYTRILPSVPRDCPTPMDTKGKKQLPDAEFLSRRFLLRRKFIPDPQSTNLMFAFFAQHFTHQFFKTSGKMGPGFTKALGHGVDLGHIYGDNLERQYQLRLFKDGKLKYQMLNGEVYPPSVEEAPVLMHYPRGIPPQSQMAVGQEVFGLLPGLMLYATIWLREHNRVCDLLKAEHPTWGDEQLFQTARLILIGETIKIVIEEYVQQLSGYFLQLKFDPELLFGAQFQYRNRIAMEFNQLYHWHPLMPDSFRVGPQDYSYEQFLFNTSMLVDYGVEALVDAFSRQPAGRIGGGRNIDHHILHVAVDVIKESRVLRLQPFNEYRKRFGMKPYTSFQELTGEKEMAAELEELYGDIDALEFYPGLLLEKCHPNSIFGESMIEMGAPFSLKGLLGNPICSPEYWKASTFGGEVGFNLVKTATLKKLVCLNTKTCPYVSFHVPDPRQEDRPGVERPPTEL
Sequence of Ca++ Ch.-L, Dihydropyridine (P22002 whole entry): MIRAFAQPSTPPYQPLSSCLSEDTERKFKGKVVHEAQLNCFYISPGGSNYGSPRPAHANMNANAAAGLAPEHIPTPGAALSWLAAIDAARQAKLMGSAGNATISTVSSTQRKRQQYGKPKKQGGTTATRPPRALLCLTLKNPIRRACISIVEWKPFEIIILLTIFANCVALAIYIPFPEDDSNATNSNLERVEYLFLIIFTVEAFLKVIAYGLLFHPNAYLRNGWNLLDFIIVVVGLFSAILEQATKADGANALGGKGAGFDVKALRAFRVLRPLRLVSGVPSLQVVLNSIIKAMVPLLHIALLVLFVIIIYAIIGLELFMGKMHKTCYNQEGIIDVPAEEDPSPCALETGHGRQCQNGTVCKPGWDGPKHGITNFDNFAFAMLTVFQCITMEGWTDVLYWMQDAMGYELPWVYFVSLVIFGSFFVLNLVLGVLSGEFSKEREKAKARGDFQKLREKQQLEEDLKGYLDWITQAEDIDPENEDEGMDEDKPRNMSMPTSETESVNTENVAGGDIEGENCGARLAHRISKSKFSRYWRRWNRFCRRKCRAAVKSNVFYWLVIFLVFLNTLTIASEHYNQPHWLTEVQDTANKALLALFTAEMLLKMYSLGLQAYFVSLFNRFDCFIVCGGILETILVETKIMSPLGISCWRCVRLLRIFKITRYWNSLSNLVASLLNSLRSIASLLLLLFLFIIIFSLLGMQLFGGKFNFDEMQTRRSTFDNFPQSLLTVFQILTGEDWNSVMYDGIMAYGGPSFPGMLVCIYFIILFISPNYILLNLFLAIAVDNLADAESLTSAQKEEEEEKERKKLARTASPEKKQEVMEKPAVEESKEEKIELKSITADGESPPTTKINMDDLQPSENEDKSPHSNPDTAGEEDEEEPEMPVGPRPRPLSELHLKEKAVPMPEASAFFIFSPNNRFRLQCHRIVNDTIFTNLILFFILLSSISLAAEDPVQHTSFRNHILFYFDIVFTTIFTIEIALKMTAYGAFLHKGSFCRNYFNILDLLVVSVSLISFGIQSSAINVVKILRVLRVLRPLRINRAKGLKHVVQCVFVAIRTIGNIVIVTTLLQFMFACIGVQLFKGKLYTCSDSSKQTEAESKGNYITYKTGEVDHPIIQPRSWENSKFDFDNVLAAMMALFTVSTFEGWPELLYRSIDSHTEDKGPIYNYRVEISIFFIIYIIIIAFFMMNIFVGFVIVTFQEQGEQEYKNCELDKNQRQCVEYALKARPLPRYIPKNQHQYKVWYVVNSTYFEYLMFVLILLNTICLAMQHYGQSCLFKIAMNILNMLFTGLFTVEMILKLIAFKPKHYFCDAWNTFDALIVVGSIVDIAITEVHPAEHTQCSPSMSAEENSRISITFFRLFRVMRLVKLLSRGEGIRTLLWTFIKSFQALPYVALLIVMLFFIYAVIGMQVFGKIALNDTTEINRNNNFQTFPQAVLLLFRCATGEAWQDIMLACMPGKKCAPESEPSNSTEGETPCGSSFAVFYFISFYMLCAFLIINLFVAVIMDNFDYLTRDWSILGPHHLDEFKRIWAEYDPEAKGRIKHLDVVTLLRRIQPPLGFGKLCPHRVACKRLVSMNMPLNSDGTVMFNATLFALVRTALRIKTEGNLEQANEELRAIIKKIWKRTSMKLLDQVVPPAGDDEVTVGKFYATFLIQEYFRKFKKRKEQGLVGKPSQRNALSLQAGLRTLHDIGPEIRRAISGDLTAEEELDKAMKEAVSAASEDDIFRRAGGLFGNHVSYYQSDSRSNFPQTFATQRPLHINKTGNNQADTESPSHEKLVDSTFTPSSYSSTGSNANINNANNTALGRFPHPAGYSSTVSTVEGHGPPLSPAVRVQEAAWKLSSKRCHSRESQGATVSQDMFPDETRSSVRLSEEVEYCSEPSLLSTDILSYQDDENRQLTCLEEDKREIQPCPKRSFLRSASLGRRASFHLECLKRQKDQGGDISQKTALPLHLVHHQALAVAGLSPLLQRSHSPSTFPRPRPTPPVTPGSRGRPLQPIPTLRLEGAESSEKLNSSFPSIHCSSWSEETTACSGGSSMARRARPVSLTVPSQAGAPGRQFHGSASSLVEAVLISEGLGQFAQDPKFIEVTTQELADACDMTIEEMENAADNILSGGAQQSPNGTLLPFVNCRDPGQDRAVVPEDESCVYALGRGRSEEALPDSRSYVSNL
T3 sequence (Q9QYN8 whole entry): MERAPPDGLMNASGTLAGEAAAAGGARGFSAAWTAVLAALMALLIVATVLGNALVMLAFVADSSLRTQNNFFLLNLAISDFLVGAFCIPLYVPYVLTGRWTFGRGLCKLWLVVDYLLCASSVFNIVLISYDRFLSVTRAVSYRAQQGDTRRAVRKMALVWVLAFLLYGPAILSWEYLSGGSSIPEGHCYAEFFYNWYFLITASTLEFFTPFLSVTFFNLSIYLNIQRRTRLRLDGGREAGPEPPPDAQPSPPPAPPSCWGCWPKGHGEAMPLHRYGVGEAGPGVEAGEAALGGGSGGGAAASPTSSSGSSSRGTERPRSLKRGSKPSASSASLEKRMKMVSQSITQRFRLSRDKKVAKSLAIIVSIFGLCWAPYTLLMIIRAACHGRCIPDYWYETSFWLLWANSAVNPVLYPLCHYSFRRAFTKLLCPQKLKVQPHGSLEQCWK

Substance: LEU-PRO-PRO-SER-ARG [Peptide]
- anti-inflammatory response (percent inhibition) [1]: 116.3%
- Agonism, Ave. ([2]; average of two preparations, R(α)-Methylhistamine 0.3 μM): 4%
- Antagonism, Ave. ([2]; average of two preparations): 4%
- Antagonism ([2]; individual preparation, reduction of 0.3 μM R(α)-methylhistamine-induced relaxation): 7% and 0%
- Agonism ([2]; individual preparation, relaxation within 5 minutes relative to 0.3 μM R-α-methylhistamine, R(α)-Methylhistamine 0.3 μM (0.1 printed in r13)): 0% and 4%
- % Inhibition [3]: 12%
- % Inhibition [4]: 2%
- % tumor inhibition ([5]; I.P. injections or gavage on days 1-5, 6 mice): 99.0%
- Mean tumor wt. gain, gm ([5]; net tumor weight, I.P. injections or gavage on days 1-5, 6 mice): 0.03 gm
- % Inhibition [6]: −6%
- % Inhibition [7]: −13%
- % Inhibition [8]: 2%
